Laboratory results as given in patent US20110052532A1, “Pharmaceutical composition comprising a cytokine” (priority 2007, published 2011).

B1: IFN-α: type I interferon cytokine; commercial IFN-α is IFN-α1 (protein, UniProt P01562 24-189, looked up)
Interferon alpha-1/13: CDLPETHSLDNRRTLMLLAQMSRISPSSCLMDRHDFGFPQEEFDGNQFQKAPAISVLHELIQQIFNLFTTKDSSAAWDEDLLDKFCTELYQQLNDLEACVMQEERVGETPLMNADSILAVKKYFRRITLYLTEKKYSPCAWEVVRAEIMRSLSLSTNLQERLRRKE

What was measured:
[1] = tested on: bovine viral diarrhea virus (BVDV) NADL strain; test: BVDV antiviral drug-drug combination assay (MTS, MacSynergy II); assay type: cell-based; conditions: in combination with IFN-α; MDBK cells with BVDV virus
Procedure: (§1) The substances were solubilized in DMSO. Pegylated interferon-alpha (IFN) was supplied by Southern Research Institute and dissolved in sterile dH2O.
(§2) Drug-drug interactions were assayed by testing both the antiviral and cytotoxic activities of a wide range of concentrations of combinations of the compounds and IFN. The bovine viral diarrhea virus (BVDV) NADL strain antiviral evaluation assay and drug-drug combination analysis was performed as described in Antimicro. Agents Chemother. 2003; 47: 2293-8. BVDV is frequently employed as a hepatitis C virus surrogate model in the study of antiviral agents (Antiviral Res. 2003; 60:1-15). Madin-Darby bovine kidney cells were trypsinized, pelleted, counted and resuspended at 1×10^4/well in tissue culture medium in 96-well flat bottom, tissue culture plates in volume of 100 μl per well. […] Five concentrations of substance were evaluated in combination with nine different concentrations IFN; antiviral efficacy and cellular toxicity were monitored by MTS staining at the experimental endpoint.
(§3) At assay termination, the assay plates were stained with the soluble tetrazolium-based dye MTS (CellTiter Reagent Promega) to determine cell viability and quantify compound toxicity. […]
(§4) Theoretical additive values are calculated from the dose response curves for each substance used individually. […]

[2] = tested on: Madin-Darby bovine kidney cells; test: BVDV assay, combined cytotoxicity (MTS staining); assay type: cell-based; conditions: in combination with IFN-α; MDBK cells
Procedure: as §1, §2, §3, §4

HCV = conditions: cited from earlier work

Row | Molecule | combined antiviral activity (drug-drug interaction) [1] | combined cytotoxic activity (drug-drug interaction) [2] | sustained antiviral response, share of patients (HCV; IFN-α therapy in chronic HCV infected patients) | sustained response (HCV; combination therapy with ribavirin)
1 | O=C(c1ccccc1)c1ccc2nc(NC(=O)c3csc(C4CCN(c5ncnc6ccsc56)CC4)n3)[nH]c2c1 [Compound 273, 2-(1-Thieno[3,2-d]pyrimidin-4-yl-piperidin-4-yl)-thiazole-4-carboxylic acid (5-benzoyl-1H-benzoimidazol-2-yl)-amide] | highly synergistic behaviour | highly antagonistic behaviour | – | –
2 | B1 | – | – | 15-20% | 38-43%
